# Experimental data as given in patent US10604489B2, “Compounds for the treatment of pain” (priority 2018, dated 2020).
# Read-outs that look alike come from different tables or passages of the source.
# What was measured:
# [1] = system: Male Sprague-Dawley rats; details: rat
# [2] = system: Male Sprague-Dawley rats; assay: animal or person; format: in vivo, rat
# [3] = target: μ-receptor (Homo sapiens (Human), UniProt P35372); assay: Receptor binding, competitive displacement of [3H]DAMGO; details: 0.25 nM [3H]DAMGO, CHO cell membrane protein, 60 min at 25° C.
# Outline: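 Membranes from CHO cells stably expressing cloned human μ-opioid receptor incubated 60 min at 25 °C with 12 compound concentrations and 0.25 nM [3H]DAMGO in 50 mM Tris-HCl pH 7.5; nonspecific binding with 10 μM naloxone. Filtration and scintillation counting; Ki from IC50 by Cheng-Prusoff.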
# [4] = target: T1, human μ opioid receptor (Homo sapiens (Human), UniProt P35372); assay: Functional activity ([35S]GTPγS binding); format: biochemical; details: [35S]GTPγS 0.080 nM, CHO cell membranes, 60 min at 30° C., filtration
# Outline: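 Membranes from stably transfected CHO cells (7.5 μg) incubated with 12 test-compound concentrations and 0.080 nM [35S]GTPγS in 50 mM Tris-HCl pH 7.4, 3 mM MgCl2, 0.2 mM EGTA, 3 μM GDP, 100 mM NaCl, 60 min at 30° C. Nonspecific binding defined with 10 μM GTPγS; bound label collected by filtration and scintillation counting.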
# [5] = target: T1, human μ opioid receptor; assay: Alternate functional activity ([35S]GTPγS binding) assay, SPA beads; format: biochemical; details: alternate assay: [35S]GTPγS 0.020 nM, CHO cell membranes with WGA PVT SPA beads
# Protocol: The [^35S]GTPγS assay measures the functional properties of a compound by quantifying the level of G-protein activation following agonist binding in studies using stably transfected cells, and is considered to be a measure of the efficacy of a compound. Membranes from CHO (Chinese Hamster Ovary) cells that stably expressed one type of the cloned human opioid receptor human were used in the experiments. The assay buffer consisted of 50 mM Tris-HCl, pH 7.4, 3 mM MgCl2, 0.2 mM EGTA, 5 μM GDP, and 100 mM NaCl. CHO cell membranes stably expressing the human p opioid receptor were pre-incubated with scintillation proximity assay beads from PerkinElmer® (WGA PVT SPA) for 30 minutes, at 8 µg membrane and […] beads in a volume of 0.1 mL per reaction. In a final volume of 0.2 mL, 11 different concentrations of each test compound were incubated with the membrane-SPA bead mixture and a final concentration of 0.020 nM [35S]GTPγS for 1.5 hours with gentle shaking. Reactions were then incubated for 5 hours. Data are the mean EC50 values ±S.E.M. EC50 values (nM) for compounds 12, 16, 19, 20, 149, 151, 152, 157, 160, 161, 164-169, 172, 173, 180-197, and 199-207 are shown in Table 1.
# [6] = maximum pCO2 within 2 hours of administration, dose 10× CFA MEMD, subcutaneous
# [7] = maximum pCO2 within 2 hours of administration, dose 100× CFA MEMD, subcutaneous
# [8] = sc, minimum dose at which maximal reversal of hind paw weight bearing (50±0.5%) was achieved, subcutaneous administration, rat, read-out: MEMD SC CFA
# [9] = Rattus norvegicus, sc, read-out: MEMD SC CFA (mg/kg)
SMILES,"<60 mmHg @ 10X CFA MEMD [1, 6]","<60 mmHg @ 100X CFA MEMD [1, 7]","minimal effective dose [2, 8]",Ki [3],EC50 [4],other results
"COC[C@H](C)N1CC2CCCC(C1)C2(OC)c1ccnc(C(N)=O)c1.Cl (single isomer, unassigned) [Compound 61]",+ (resulted in a maximum pCO2 value of less than 60 mmHg within 2 hours of administration),+ (resulted in a maximum pCO2 value of less than 60 mmHg within 2 hours of administration),0.3 mg/kg,–,–,–
"COC1(c2cccc(C(N)=O)c2)C2CCCC1CN([C@H]1CCCOC1)C2.Cl (single isomer, unassigned) [Compound 140]",+ (resulted in a maximum pCO2 value of less than 60 mmHg within 2 hours of administration),–,0.1 mg/kg,–,–,–
"COC1(c2cccc(C(N)=O)c2)C2CCCC1CN(CC1CC1)C2.Cl [Compound 22, 3-((1R,5S,9r)-3-(cyclopropylmethyl)-9-methoxy-3-azabicyclo[3.3.1]nonan-9-yl)benzamide hydrochloride]",+ (resulted in a maximum pCO2 value of less than 60 mmHg within 2 hours of administration),− (resulted in a maximum pCO2 value of greater than 60 mmHg within 2 hours of administration),0.1 mg/kg,< 0.001 µM,< 0.01 µM,–
"COC1(c2cccc(C(N)=O)c2)C2CCCC1CN(C)C2.Cl [Compound 23, 3-((1R,5S,9r)-9-methoxy-3-methyl-3-azabicyclo[3.3.1]nonan-9-yl)benzamide hydrochloride]",+ (resulted in a maximum pCO2 value of less than 60 mmHg within 2 hours of administration),+ (resulted in a maximum pCO2 value of less than 60 mmHg within 2 hours of administration),0.1 mg/kg,< 0.001 µM,< 0.01 µM,–
"COC1(c2ccnc(C(N)=O)c2)C2CCCC1CN(CC1CC1)C2.Cl [Compound 27, 4-((1R,5S,9r)-3-(cyclopropylmethyl)-9-methoxy-3-azabicyclo[3.3.1]nonan-9-yl)picolinamide hydrochloride]",–,+ (resulted in a maximum pCO2 value of less than 60 mmHg within 2 hours of administration),0.01 mg/kg,0.001 to 0.005 µM,0.01 to 0.075 µM,–
"COC1(c2ccnc(C(N)=O)c2)C2CCCC1CN(C)C2.Cl [Compound 43, 4-((1R,5S,9r)-9-methoxy-3-methyl-3-azabicyclo[3.3.1]nonan-9-yl)picolinamide hydrochloride]",+ (resulted in a maximum pCO2 value of less than 60 mmHg within 2 hours of administration),+ (resulted in a maximum pCO2 value of less than 60 mmHg within 2 hours of administration),0.1 mg/kg,< 0.001 µM,0.01 to 0.075 µM,–
"COC1(c2cccc(C(N)=O)c2)C2CCCC1CN(CC1(O)CC1)C2.Cl [Compound 46, 3-((1R,5S,9r)-3-((1-hydroxycyclopropyl)methyl)-9-methoxy-3-azabicyclo[3.3.1]nonan-9-yl)benzamide hydrochloride]",+ (resulted in a maximum pCO2 value of less than 60 mmHg within 2 hours of administration),–,1 mg/kg,< 0.001 µM,0.01 to 0.075 µM,–
"COC1(c2ccnc(C(N)=O)c2)C2CCCC1CN([C@@H]1CCCOC1)C2.Cl (stereo partly drawn) [Compound 60, 4-((1R,5S,9R)-9-methoxy-3-((R)-tetrahydro-2H-pyran-3-yl)-3-azabicyclo[3.3.1]nonan-9-yl)picolinamide hydrochloride]",+ (resulted in a maximum pCO2 value of less than 60 mmHg within 2 hours of administration),+ (resulted in a maximum pCO2 value of less than 60 mmHg within 2 hours of administration),0.3 mg/kg,0.001 to 0.005 µM,> 0.075 µM,–
"COC1(c2ccnc(C(N)=O)c2)C2CCCC1CNC2.Cl [Compound 70, 4-((1R,5S,9r)-9-methoxy-3-azabicyclo[3.3.1]nonan-9-yl)picolinamide hydrochloride]",+ (resulted in a maximum pCO2 value of less than 60 mmHg within 2 hours of administration),+ (resulted in a maximum pCO2 value of less than 60 mmHg within 2 hours of administration),1 mg/kg,0.001 to 0.005 µM,> 0.075 µM,–
"COC1(c2ccnc(C(N)=O)c2)C2CCCC1CN([C@H]1CCOC1)C2.Cl (stereo partly drawn) [Compound 79, 4-((1R,5S,9R)-9-methoxy-3-((R)-tetrahydrofuran-3-yl)-3-azabicyclo[3.3.1]nonan-9-yl)picolinamide hydrochloride]",+ (resulted in a maximum pCO2 value of less than 60 mmHg within 2 hours of administration),− (resulted in a maximum pCO2 value of greater than 60 mmHg within 2 hours of administration),0.3 mg/kg,0.001 to 0.005 µM,0.01 to 0.075 µM,–
"CCCN1CC2CCCC(C1)C2(OC)c1ccnc(C(N)=O)c1.Cl [Compound 91, 4-((1R,5S,9r)-9-methoxy-3-propyl-3-azabicyclo[3.3.1]nonan-9-yl)picolinamide hydrochloride]",–,–,–,0.001 to 0.005 µM,0.01 to 0.075 µM,"<60 mmHg @ 100X CFA MEMD ([1]; maximum pCO2 within 2 hours of administration, dosed at 10 mg/kg): + (dosed at 10 mg/kg) (resulted in a maximum pCO2 value of less than 60 mmHg within 2 hours of administration); minimal effective dose ([2]; po, minimum dose at which maximal reversal of hind paw weight bearing was achieved, dosed orally, rat, read-out: MEMD SC CFA): 3 mg/kg"
"CO[C@@]1(c2ccnc(C(N)=O)c2)[C@@H]2CCC[C@H]1CN(Cc1ncc(C)[nH]1)C2.Cl [Compound 153, 4-((1R,5S,9r)-9-methoxy-3-((5-methyl-1H-imidazol-2-yl)methyl)-3-azabicyclo[3.3.1]nonan-9-yl)picolinamide hydrochloride]",–,–,–,< 0.001 µM,0.01 to 0.075 µM,"MEMD SC CFA ([2]; minimum dose at which maximal reversal of hind paw weight bearing (50±0.5%) was achieved, subcutaneous administration, rat): 1 mg/kg"
"COC1(c2cccc(C(N)=O)c2)C2CCCC1CN(CCc1cnn[nH]1)C2.Cl [Compound 155, 3-((1R,5S,9r)-3-(2-(1H-1,2,3-triazol-4-yl)ethyl)-9-methoxy-3-azabicyclo[3.3.1]nonan-9-yl)benzamide hydrochloride]",–,–,1 mg/kg,< 0.001 µM,< 0.01 µM,–
CCOC1(c2ccnc(C(N)=O)c2)C2CCCC1CNC2 (centres unmarked) [Compound 161],–,–,0.3 mg/kg,–,–,EC50 [5]: 0.01 to 0.075 µM
COC1(c2cccc(C(N)=O)c2)C2CCCC1CN(C[C@H]1[C@@H]3COC[C@@H]31)C2.Cl (some centres unmarked) [Compound 176],–,–,0.1 mg/kg,< 0.001 µM,< 0.01 µM,–
"CN1CC[C@]23c4c5ccc(O)c4O[C@H]2[C@@H](O)C=C[C@H]3[C@H]1C5 [Morphine, reference compound]",–,–,–,–,–,"<60 mmHg @ 10X CFA MEMD ([1]; in vivo, sc): − (key: −: resulted in a maximum pCO2 value of greater than 60 mmHg within 2 hours of administration; +: resulted in a maximum pCO2 value of less than 60 mmHg within 2 hours of administration); minimal effective dose [2, 9]: 3 mg/kg"
"COc1ccc2c3c1O[C@H]1C(=O)CC[C@@]4(O)[C@@H](C2)N(C)CC[C@]314 [Oxycodone, reference compound]",–,–,–,–,–,"<60 mmHg @ 10X CFA MEMD ([1]; in vivo, sc): − (key: −: resulted in a maximum pCO2 value of greater than 60 mmHg within 2 hours of administration; +: resulted in a maximum pCO2 value of less than 60 mmHg within 2 hours of administration); minimal effective dose [2, 9]: 3 mg/kg"
